From paper PMC10305147 (Life, 2023)

How the values were obtained:
[1] = biological target: T1, Acetylcholinesterase (AChE) (Electrophorus electricus, UniProt O42275)
Description: (§1) AChE was used to carry out the inhibitory assay using Ellman’s method [23] with modifications. A 0.05 M phosphate buffer, pH 8.0, was used in this protocol. Additionally, 60 µL of the herbal extract was mixed with the same volume of 0.5 mM enzyme solution and 120 µL of phosphate buffer, and kept at 25 °C for 15 min in a flat-bottom 96-well plate. Agent 5, 5′-dithiobis-2-nitrobenzoic acid (DTNB, 30 µL of 0.003 M) and 40 µL of 0.002 M acetylthiocholine iodide (ATCI) were added into the mixture to start the reaction. The reaction was maintained at 25 °C for 10 min before the absorbance was measured at the wavelength of 415 nm. For the control group, 60 µL of phosphate buffer was used instead of 60 µL of the herbal extract solution and the same condition was used for the calculation of enzyme inhibition activity using the following equation:AChE inhibition (%) = (AC − AE)/AC × 100, where AE is the absorbance value measured at 415 nm of the reaction containing herbal extract and enzyme, while AC is the absorbance value at 415 nm of the reaction containing enzyme and phosphate buffer instead of the herbal extract. The samples and berberine chloride (commercial AChE inhibitor) were dissolved in dimethylsulfoxide and eluted at various concentrations using a 0.05 M phosphate buffer and then used for the tests.

[2] = biological target: T1, Acetylcholinesterase (AChE); test: biochemical
Description: as §1

[3] = biological target: T1, Acetylcholinesterase (AChE); test: AChE enzyme inhibition assay (Ellman's method, modified); settings: IC50, different parts of ELC extracted by MeOH (Table 2)
Description: as §1

tumor cell lines = settings: EGCG from green tea at 40–200 microM; cited from earlier work
HuCC-T1 cancer cells = settings: cited from earlier work
293T normal cells = settings: cited from earlier work
WI38 normal cells = settings: EGCG from green tea at 40–200 microM; cited from earlier work
normal cells = settings: cited from earlier work; for effect on normal cells: cause death for various cancer cells
[4] = system: bronchial epithelial 16HBE normal cells; settings: cited from earlier work
[5] = adjuvant chemotherapeutic agents; cited from earlier work

T1 sequence (O42275 24-633): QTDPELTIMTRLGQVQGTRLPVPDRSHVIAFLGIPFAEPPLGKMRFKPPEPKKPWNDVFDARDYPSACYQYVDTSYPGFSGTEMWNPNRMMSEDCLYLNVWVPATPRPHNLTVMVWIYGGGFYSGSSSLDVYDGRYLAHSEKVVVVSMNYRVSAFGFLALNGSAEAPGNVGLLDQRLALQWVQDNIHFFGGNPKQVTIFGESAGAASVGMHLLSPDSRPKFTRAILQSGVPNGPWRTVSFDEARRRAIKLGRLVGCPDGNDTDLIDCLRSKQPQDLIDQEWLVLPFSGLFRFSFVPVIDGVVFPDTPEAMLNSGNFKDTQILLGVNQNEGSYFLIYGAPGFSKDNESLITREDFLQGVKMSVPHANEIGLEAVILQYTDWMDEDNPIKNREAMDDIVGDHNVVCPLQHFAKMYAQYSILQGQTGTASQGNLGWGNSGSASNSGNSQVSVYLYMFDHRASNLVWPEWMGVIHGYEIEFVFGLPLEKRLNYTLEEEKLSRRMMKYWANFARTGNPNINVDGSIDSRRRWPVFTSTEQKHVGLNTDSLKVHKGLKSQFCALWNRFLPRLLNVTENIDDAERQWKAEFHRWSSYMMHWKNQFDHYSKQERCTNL

## COc1ccc2cc3[n+](cc2c1OC)CCc1cc2c(cc1-3)OCO2 [Berberine chloride, berberine chloride]
[1]
  inhibition: 98.2 ± 1.8%
[2]
  IC50: 934 µM
[3]
  IC50: 972 µM

## O=C(O[C@@H]1Cc2c(O)cc(O)cc2O[C@@H]1c1cc(O)c(O)c(O)c1)c1cc(O)c(O)c(O)c1 [Compd 12, epigallocatechin gallate]
Tumor cell lines
  death of tumor cell lines: significant death
HuCC-T1 cancer cells
  toxicity on HuCC-T1 cancer cells: toxic
293T normal cells
  viability of 293T normal cells: safe
WI38 normal cells
  WI38 normal cells growth affected: 1%

## Oc1cc(O)c2c(c1)O[C@H](c1ccc(O)c(O)c1)[C@H](O)C2 [Compd 13, epicatechin]
Normal cells
  effect on normal cells: no effect on normal cells

## O=C(O[C@@H]1Cc2c(O)cc(O)cc2O[C@@H]1c1ccc(O)c(O)c1)c1cc(O)c(O)c(O)c1 [Compd 14, epicatechin gallate]
Normal cells
  effect on normal cells: no effect on normal cells

## O=c1cc(-c2ccc(O)cc2)oc2c([C@@H]3O[C@H](CO)[C@@H](O)[C@H](O)[C@H]3O)c(O)cc(O)c12 [Compd 15, vitexin]
[4]
  effect on bronchial epithelial 16HBE normal cells: non-effect

## C[C@@H]1O[C@@H](OC[C@H]2O[C@@H](Oc3c(-c4ccc(O)c(O)c4)oc4cc(O)cc(O)c4c3=O)[C@H](O)[C@@H](O)[C@@H]2O)[C@H](O)[C@H](O)[C@H]1O [Compd 17, rutin]
[5]
  toxicity and side effects via in vivo and clinical trials: trivial toxicity and side effects

## O=c1cc(-c2ccc(O)cc2)oc2cc(O[C@@H]3O[C@H](CO)[C@@H](O)[C@H](O)[C@H]3O)cc(O)c12 [Compd 18, apigetrin]
[5]
  toxicity and side effects via in vivo and clinical trials: trivial toxicity and side effects

## O=c1c(O)c(-c2cc(O)c(O)c(O)c2)oc2cc(O)cc(O)c12 [Compd 19, myricetin]
[5]
  toxicity and side effects via in vivo and clinical trials: trivial toxicity and side effects

## O=c1c(O)c(-c2ccc(O)c(O)c2)oc2cc(O)cc(O)c12 [Compd 20, quercetin]
Normal cells
  effects on normal cells: no or low effects on normal cells

## O=c1cc(-c2ccc(O)cc2)oc2cc(O)cc(O)c12 [Compd 21, apigenin]
Normal cells
  effects on normal cells: no or low effects on normal cells
